This is an account of results in US9062050B2, “Inhibitor of JAK1 and JAK2” (Eli Lilly and Company, priority 2012, dated 2015).

The target of one assay is T1, JAK1 (Homo sapiens, UniProt P23458).
T1 construct: purchased Life Technologies #PV4844
The experiment in a line: JAK LanthaScreen Kinase Assay (TR-FRET), JAK1. Type of assay: biochemical. The note with it: enzyme assay, 20.0 micromolar ATP, n=3; read-out: IC50 against JAK1. From the text: (§1) The JAK LanthaScreen™ Kinase Assay (Life Technologies, #PV4844) is used to determine compound IC50 values against the JAK1, JAK2, and JAK3 kinases. This kinase assay is a Time Resolved Fluorescence Resonance Energy Transfer (TR-FRET) assay format that uses long-lifetime terbium (Tb) labeled antibody as the donor species and Green Fluorescent Protein-Signal Transducers and Activators of Transcription (GFP-STAT1) as the acceptor species.
(§2) The TR-FRET ratio is used to monitor JAK1, JAK2, or JAK3 activity where an increase in phosphorylation of the GFP-STAT1 results in an increase in the TR-FRET ratio. Perform the kinase reaction using a 12.5 microliter reaction volume in shallow black 384-well Proxiplate (PerkinElmer, #6008260). […] Incubate at room temperature for 90 minutes, and read in an EnVision plate reader (PerkinElmer, #2104-0010) with 340 nm wavelength excitation filter and emission filters of 520 nm and 495 nm wavelengths. The ratio is derived from the emission wavelength for the GFP-STAT1 which is measured at 520 nanometer versus the emission at 495 nanometer for the Tb-anti-pSTAT1[pTyr701]. Derive the IC50 value for the compound using percent inhibition data, which is calculated from the reaction data relative to on-plate controls (active enzyme versus 2.0 micromolar control-inhibited enzyme). […]

The next assay has as its system IL-6-STAT3 signaling. Kind of assay: DS1-AlphaScreen-pSTAT3 cell-based assay. The note with it: DS1 cells, IL6 10 ng/ml; read-out: IC50, inhibits IL-6-STAT3 signaling (pSTAT3). How it is done:
The DS1-AlphaScreen-pSTAT3-cell-based assay is used to examine the potency of compounds at blocking the IL6-stimulated STAT3 pathway. The JAK-STAT3 pathway is constitutively active in many types of cancers and is implicated in tumor cells for increasing proliferation, survival, and invasion. DS1 cells (ATCC) are cultured in RPMI complete medium with 10% FBS and then adopted and grown in DMEM/High Modified medium supplemented with 10% FBS at 37° C. at 95% humidity and under an atmosphere of 5% CO2. DS1 cells are plated at a density of 4×10^4 cells/well in 96 well-plates and cultured in serum-free culture medium at 37° C. for three hours, followed by pre-treatment either with vehicle alone (DMSO) or test compounds across a range of final concentrations from 0-20 μM for 10 min. IL6 (R&D System, 206-IL) is then added into the cell culture at 10 ng/ml final concentration, which is continued for an additional 30 min at 37° C. Finally, cells are lysed with 5× alpha lysis buffer and transferred to a 384-well plate (PerkinElmer, #6008280) filled with the reaction mixture (TGR Biosciences, South Australia, Australia, #TGRS3S10K) for pSTAT3 detection (#TGRS3SHV100). The plates are sealed and incubated at room temperature for 2 hours, and pSTAT3 is measured by using an Envision06 plate reader (TGR Biosciences, South Australia, Australia). The data are analyzed with ActivityBase 4.0.

The next assay concerns the target JAK2 (Homo sapiens, UniProt O60674). The experiment in a line: JAK LanthaScreen Kinase Assay (TR-FRET), JAK2. The note with it: enzyme assay, 5 micromolar ATP, n=1; read-out: IC50 against JAK2. Type of assay: biochemical. More on the design: purchased Life Technologies #PV4844.
Description: as §1, §2

T1 sequence (P23458 whole entry): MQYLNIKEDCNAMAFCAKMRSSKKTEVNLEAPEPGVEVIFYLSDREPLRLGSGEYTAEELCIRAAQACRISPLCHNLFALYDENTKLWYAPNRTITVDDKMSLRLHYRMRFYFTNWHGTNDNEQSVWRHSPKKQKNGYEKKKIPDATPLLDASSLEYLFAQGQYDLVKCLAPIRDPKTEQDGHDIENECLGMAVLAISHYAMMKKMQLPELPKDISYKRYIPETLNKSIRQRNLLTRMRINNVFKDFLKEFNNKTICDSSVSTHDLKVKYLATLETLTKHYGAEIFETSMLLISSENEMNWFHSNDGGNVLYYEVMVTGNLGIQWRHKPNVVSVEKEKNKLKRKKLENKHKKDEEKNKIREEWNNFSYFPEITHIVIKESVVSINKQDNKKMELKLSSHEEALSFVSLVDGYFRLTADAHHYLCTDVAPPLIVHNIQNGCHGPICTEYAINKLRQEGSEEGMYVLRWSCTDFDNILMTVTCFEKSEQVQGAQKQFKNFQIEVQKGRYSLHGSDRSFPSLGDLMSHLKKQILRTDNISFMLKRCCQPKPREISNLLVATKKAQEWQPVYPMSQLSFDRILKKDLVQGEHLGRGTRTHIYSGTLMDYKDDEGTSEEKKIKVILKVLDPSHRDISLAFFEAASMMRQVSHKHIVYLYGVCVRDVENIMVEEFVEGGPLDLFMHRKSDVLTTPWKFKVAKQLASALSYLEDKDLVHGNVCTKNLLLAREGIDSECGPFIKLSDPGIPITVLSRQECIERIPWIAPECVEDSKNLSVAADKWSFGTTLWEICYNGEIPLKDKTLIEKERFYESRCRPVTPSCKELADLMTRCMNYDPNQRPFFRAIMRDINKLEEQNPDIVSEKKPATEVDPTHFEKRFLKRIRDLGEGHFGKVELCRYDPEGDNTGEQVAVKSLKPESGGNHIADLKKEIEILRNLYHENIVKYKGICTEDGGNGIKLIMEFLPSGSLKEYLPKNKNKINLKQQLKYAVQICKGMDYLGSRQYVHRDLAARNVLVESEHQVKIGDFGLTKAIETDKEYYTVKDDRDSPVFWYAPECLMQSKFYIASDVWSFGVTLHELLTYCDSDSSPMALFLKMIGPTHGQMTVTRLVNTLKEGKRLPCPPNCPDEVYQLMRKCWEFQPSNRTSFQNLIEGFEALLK
Chain of JAK2 (O60674 whole entry): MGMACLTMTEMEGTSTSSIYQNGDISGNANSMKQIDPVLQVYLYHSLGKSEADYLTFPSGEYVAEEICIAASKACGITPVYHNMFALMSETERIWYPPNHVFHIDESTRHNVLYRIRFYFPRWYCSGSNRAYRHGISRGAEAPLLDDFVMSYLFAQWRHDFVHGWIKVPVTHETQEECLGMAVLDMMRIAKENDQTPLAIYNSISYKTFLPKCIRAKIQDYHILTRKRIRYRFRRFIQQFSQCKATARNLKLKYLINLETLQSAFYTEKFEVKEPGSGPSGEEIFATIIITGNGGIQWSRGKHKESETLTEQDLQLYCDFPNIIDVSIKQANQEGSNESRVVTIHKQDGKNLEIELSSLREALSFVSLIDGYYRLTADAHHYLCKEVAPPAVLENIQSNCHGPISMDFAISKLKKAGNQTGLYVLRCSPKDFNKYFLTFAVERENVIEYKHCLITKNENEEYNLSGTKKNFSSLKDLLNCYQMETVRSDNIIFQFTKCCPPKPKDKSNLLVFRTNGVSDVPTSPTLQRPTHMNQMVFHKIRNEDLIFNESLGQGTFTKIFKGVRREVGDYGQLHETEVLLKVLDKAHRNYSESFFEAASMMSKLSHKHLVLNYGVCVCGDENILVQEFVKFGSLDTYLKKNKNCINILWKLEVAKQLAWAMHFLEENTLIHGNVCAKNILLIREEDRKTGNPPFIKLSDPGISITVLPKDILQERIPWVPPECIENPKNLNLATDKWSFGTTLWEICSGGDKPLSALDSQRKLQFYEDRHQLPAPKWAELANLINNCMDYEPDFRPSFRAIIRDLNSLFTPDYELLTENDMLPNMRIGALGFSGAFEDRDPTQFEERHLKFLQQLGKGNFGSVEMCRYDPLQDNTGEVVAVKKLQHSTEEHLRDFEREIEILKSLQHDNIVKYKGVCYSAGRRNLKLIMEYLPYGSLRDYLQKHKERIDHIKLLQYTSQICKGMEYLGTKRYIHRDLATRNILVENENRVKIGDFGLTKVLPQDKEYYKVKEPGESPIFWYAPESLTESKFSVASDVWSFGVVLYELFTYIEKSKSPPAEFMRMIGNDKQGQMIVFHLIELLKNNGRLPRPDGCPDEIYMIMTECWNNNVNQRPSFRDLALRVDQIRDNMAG

Consider `Cc1cc(Nc2ccc3ncn([C@@H]4CCc5ccc(F)cc54)c3n2)[nH]n1.Cl.Cl` [Example 1, 3-[(1R)-6-fluoro-2,3-dihydro-1H-inden-1-yl]-N-(3-methyl-1H-pyrazol-5-yl)-3H-imidazo[4,5-b]pyridin-5-amine dihydrochloride], for which the IC50 is 1.7 nM at JAK1, 66 nM with IL-6-STAT3 signaling and 1.7 nM at JAK2.
